Laboratory results reported in ChEMBL document CHEMBL4316647, “Raistrickindole A, an Anti-HCV Oxazinoindole Alkaloid from Penicillium raistrickii IMB17-034” (J Nat Prod, 2019).

Key:
[1] = Selectivity index, ratio of CC50 for Cytotoxicity against human Huh7.5 cells to EC50 for antiviral activity against HCV infected in human Huh7.5 cells; assay type: toxicity, cell-based; settings: read-out: Ratio CC50/EC50
Pseudomonas aeruginosa = assay: Antibacterial activity against Pseudomonas aeruginosa; assay type: functional
Staphylococcus aureus = assay: Antibacterial activity against Staphylococcus aureus; assay type: functional
Hepatitis C virus = assay: Antiviral activity against HCV infected in human Huh7.5 cells assessed as reduction in intracellular HCV RNA incubated for 72 hrs by real-time one-step reverse-transcription polymerase chain reaction assay; assay type: functional, organism-based, Hepacivirus hominis; settings: Huh7.5, 72 h
Enterococcus faecalis = assay: Antibacterial activity against Enterococcus faecalis; assay type: functional
HCT-116 = assay: Cytotoxicity against human HCT116 cells; assay type: functional, cell-based
A549 = assay: Cytotoxicity against human A549 cells; assay type: functional, cell-based
NCI-H460 = assay: Cytotoxicity against human NCI-H460 cells; assay type: functional, cell-based
[2] = Cytotoxicity against human Huh7.5 cells assessed as reduction in cell viability; assay type: cell-based
Escherichia coli = assay: Antibacterial activity against Escherichia coli; assay type: functional

MIC (Pseudomonas aeruginosa) | MIC (Staphylococcus aureus) | EC50 (Hepatitis C virus) | MIC (Enterococcus faecalis) | MIC (Escherichia coli) | Structure (SMILES) | selectivity ratio [1] | IC50 (HCT-116) | IC50 (A549) | IC50 (NCI-H460) | CC50 [2]
> 128 µg/mL | > 128 µg/mL | 5.7 µM | > 128 µg/mL | > 128 µg/mL | O=C1N[C@@H](Cc2ccccc2)C(=O)N2O[C@H]3Nc4ccccc4[C@@]3(O)C[C@@H]12 | > 35 | ≥ 100 µM | ≥ 100 µM | ≥ 100 µM | > 200 µM
> 128 µg/mL | > 128 µg/mL | > 33.3 µM | > 128 µg/mL | > 128 µg/mL | O=C1N[C@@H](Cc2ccccc2)C(=O)N(O)[C@H]1C[C@]1(O)c2ccccc2N2C(=O)C[C@@H](c3ccccc3)N[C@H]21 | < 3 | ≥ 100 µM | ≥ 100 µM | ≥ 100 µM | 88.4 µM
> 128 µg/mL | > 128 µg/mL | 7 µM | > 128 µg/mL | > 128 µg/mL | O=C1Cn2c(nc3ccccc3c2=O)-c2ccccc2N1 | > 28 | ≥ 100 µM | ≥ 100 µM | ≥ 100 µM | > 200 µM
> 128 µg/mL | > 128 µg/mL | 5.8 µM | > 128 µg/mL | > 128 µg/mL | O=C1NCc2nc3ccccc3c(=O)n2-c2ccccc21 [SCLEROTIGENIN] | > 35 | ≥ 100 µM | ≥ 100 µM | ≥ 100 µM | > 200 µM
– | – | 0.05 µM | – | – | CCC[C@H](NC(=O)[C@@H]1[C@H]2CCC[C@H]2CN1C(=O)[C@@H](NC(=O)[C@@H](NC(=O)c1cnccn1)C1CCCCC1)C(C)(C)C)C(=O)C(=O)NC1CC1 [TELAPREVIR] | 478 | – | – | – | 25.8 µM
